Measured values from ChEMBL document CHEMBL3632603, “Synthesis of biscoumarin and dihydropyran derivatives with promising antitumor and antibacterial activities” (Bioorg Med Chem Lett, 2015).
≈ marks a conversion by molar mass, not a printed value.

Experiments:
[1] = Cytotoxicity against human HuTu 80 cells after 48 hrs by MTT assay; type: functional, cell-based; conditions: HuTu80, 48 h
4T1 = assay: Cytotoxicity against mouse 4T1 cells after 48 hrs by MTT assay; type: functional, cell-based; conditions: 4T1, 48 h
[2] = Cytotoxicity against human PANC1 cells after 48 hrs by MTT assay; type: functional, cell-based; conditions: PANC-1, 48 h
Staphylococcus aureus [3] = assay: Antibacterial activity against Staphylococcus aureus ATCC 29213 after 20 hrs by CLSI broth microdilution method; type: functional
Staphylococcus aureus [4] = assay: Antibacterial activity against methicillin-resistant Staphylococcus aureus XJ 75302 after 20 hrs by CLSI broth microdilution method; type: functional
Staphylococcus aureus [5] = assay: Antibacterial activity against methicillin-resistant Staphylococcus aureus Mu50 ATCC 700699 after 20 hrs by CLSI broth microdilution method; type: functional
Staphylococcus aureus [6] = assay: Antibacterial activity against methicillin-resistant Staphylococcus aureus USA 300 LAC after 20 hrs by CLSI broth microdilution method; type: functional

## N#CC1=C(N)Oc2c(c(=O)oc3ccccc23)C1c1ccc(Br)cc1 (configuration not stated)
[1]
  IC50: 140 µg/mL (≈ 355 µM)
  IC90: 274 µg/mL (≈ 692 µM)
4T1
  IC50: 96.2 µg/mL (≈ 243 µM)
  IC90: 172 µg/mL (≈ 435 µM)
[2]
  IC50: 176 µg/mL (≈ 446 µM)
  IC90: 328 µg/mL (≈ 829 µM)
Staphylococcus aureus [3]; ATCC 29213, 20 h
  MIC: > 256 µg/mL
Staphylococcus aureus [4]; XJ 75302, 20 h
  MIC: > 256 µg/mL
Staphylococcus aureus [5]; Mu50 ATCC 700699, 20 h
  MIC: > 256 µg/mL
Staphylococcus aureus [6]
  MIC: > 256 µg/mL

## CC1(C)CC(=O)C2=C(C1)OC(N)=C(C#N)C2c1cccc(Oc2ccccc2)c1 (configuration not stated)
[1]
  IC50: 900 µg/mL (≈ 2330 µM)
  IC90: 1700 µg/mL (≈ 4400 µM)
4T1
  IC50: 481 µg/mL (≈ 1240 µM)
  IC90: 927 µg/mL (≈ 2400 µM)
[2]
  IC50: 383 µg/mL (≈ 991 µM)
  IC90: 759 µg/mL (≈ 1960 µM)
Staphylococcus aureus [3]; ATCC 29213, 20 h
  MIC: > 256 µg/mL
Staphylococcus aureus [4]; XJ 75302, 20 h
  MIC: > 256 µg/mL
Staphylococcus aureus [5]; Mu50 ATCC 700699, 20 h
  MIC: > 256 µg/mL
Staphylococcus aureus [6]
  MIC: > 256 µg/mL

## COc1cc(C2C(C#N)=C(N)OC3=C2C(=O)CCC3)ccc1O (configuration not stated)
[1]
  IC50: 208 µg/mL (≈ 666 µM)
  IC90: 399 µg/mL (≈ 1280 µM)
4T1
  IC50: 114 µg/mL (≈ 364 µM)
  IC90: 219 µg/mL (≈ 700 µM)
[2]
  IC50: 232 µg/mL (≈ 744 µM)
  IC90: 462 µg/mL (≈ 1480 µM)
Staphylococcus aureus [3]; ATCC 29213, 20 h
  MIC: > 256 µg/mL
Staphylococcus aureus [4]; XJ 75302, 20 h
  MIC: > 256 µg/mL
Staphylococcus aureus [5]; Mu50 ATCC 700699, 20 h
  MIC: > 256 µg/mL
Staphylococcus aureus [6]
  MIC: > 256 µg/mL

## N#CC1=C(N)OC2=C(C(=O)CCC2)C1c1cc(F)cc(F)c1 (configuration not stated)
[1]
  IC50: 446 µg/mL (≈ 1480 µM)
  IC90: 824 µg/mL (≈ 2730 µM)
4T1
  IC50: 164 µg/mL (≈ 543 µM)
  IC90: 308 µg/mL (≈ 1020 µM)
[2]
  IC50: 319 µg/mL (≈ 1060 µM)
  IC90: 624 µg/mL (≈ 2060 µM)
Staphylococcus aureus [3]; ATCC 29213, 20 h
  MIC: > 256 µg/mL
Staphylococcus aureus [4]; XJ 75302, 20 h
  MIC: > 256 µg/mL
Staphylococcus aureus [5]; Mu50 ATCC 700699, 20 h
  MIC: > 256 µg/mL
Staphylococcus aureus [6]
  MIC: > 256 µg/mL

## CC(C)(C)c1ccc(C(c2c(O)c3ccccc3oc2=O)c2c(O)c3ccccc3oc2=O)cc1
[1]
  IC50: 31.1 µg/mL (≈ 66.5 µM)
  IC90: 55.5 µg/mL (≈ 119 µM)
4T1
  IC50: 24.6 µg/mL (≈ 52.4 µM)
  IC90: 47.1 µg/mL (≈ 101 µM)
[2]
  IC50: 28 µg/mL (≈ 59.7 µM)
  IC90: 53.2 µg/mL (≈ 113 µM)
Staphylococcus aureus [3]; ATCC 29213, 20 h
  MIC: 16 µg/mL (≈ 34.2 µM)
Staphylococcus aureus [4]; XJ 75302, 20 h
  MIC: 16 µg/mL (≈ 34.2 µM)
Staphylococcus aureus [5]; Mu50 ATCC 700699, 20 h
  MIC: 16 µg/mL (≈ 34.2 µM)
Staphylococcus aureus [6]
  MIC: 32 µg/mL (≈ 68.3 µM)

## CC(C)(O/N=C(\C(=O)N[C@@H]1C(=O)N2C(C(=O)[O-])=C(C[n+]3ccccc3)CS[C@H]12)c1csc(N)n1)C(=O)O [CEFTAZIDIME]
Staphylococcus aureus [3]; ATCC 29213, 20 h
  MIC: > 8 µg/mL
Staphylococcus aureus [4]; XJ 75302, 20 h
  MIC: > 256 µg/mL
Staphylococcus aureus [5]; Mu50 ATCC 700699, 20 h
  MIC: 256 µg/mL (≈ 468 µM)
Staphylococcus aureus [6]
  MIC: 64 µg/mL (≈ 117 µM)

## CCN1CCN(C(=O)N[C@@H](C(=O)N[C@@H]2C(=O)N3[C@@H]2SC(C)(C)[C@@H]3C(=O)O)c2ccccc2)C(=O)C1=O [PIPERACILLIN]
Staphylococcus aureus [3]; ATCC 29213, 20 h
  MIC: 2 µg/mL (≈ 3.86 µM)
Staphylococcus aureus [4]; XJ 75302, 20 h
  MIC: > 128 µg/mL
Staphylococcus aureus [5]; Mu50 ATCC 700699, 20 h
  MIC: > 128 µg/mL
Staphylococcus aureus [6]
  MIC: 8 µg/mL (≈ 15.5 µM)

## COc1ccc(C2C(C#N)=C(N)Oc3c2c(=O)oc2ccccc32)cc1OC (configuration not stated)
[1]
  IC50: 132 µg/mL (≈ 352 µM)
  IC90: 232 µg/mL (≈ 618 µM)
4T1
  IC50: 107 µg/mL (≈ 283 µM)
  IC90: 194 µg/mL (≈ 516 µM)
[2]
  IC50: 168 µg/mL (≈ 448 µM)
  IC90: 310 µg/mL (≈ 825 µM)
Staphylococcus aureus [3]; ATCC 29213, 20 h
  MIC: > 256 µg/mL
Staphylococcus aureus [4]; XJ 75302, 20 h
  MIC: > 256 µg/mL
Staphylococcus aureus [5]; Mu50 ATCC 700699, 20 h
  MIC: > 256 µg/mL
Staphylococcus aureus [6]
  MIC: > 256 µg/mL

## GENTAMICIN
Staphylococcus aureus [3]
  MIC: 0.12 µg/mL
Staphylococcus aureus [4]
  MIC: 64 µg/mL
Staphylococcus aureus [5]
  MIC: 32 µg/mL
Staphylococcus aureus [6]
  MIC: 0.25 µg/mL
